Assay results taken from PMC10713593, “Staphylococcus aureus functional amyloids catalyze degradation of β-lactam antibiotics” (Nature Communications, 2023).
Where no end group is shown, it is not given here.

What was measured:
[1] = test system: O=C(Cc1cccs1)N[C@@H]1C(=O)N2C(C(=O)O)=C(/C=C/c3ccc([N+](=O)[O-])cc3[N+](=O)[O-])CS[C@H]12; assay: Initial rates of nitrocefin hydrolysis by pre-assembled PSMα peptides (170 µM) followed by absorbance at 480 nm in 50 mM Hepes pH 7.4 at 20 °C, non-linear fit to the Michaelis-Menten equation.; type: biochemical
Procedure: Measurements of V0 as function of initial substrate (nitrocefin) concentrations (keeping the PSMα concentration constant at 170 µM, assuring amyloid formation, e.g., above the 30 μM threshold) are depicted in Fig. 2c. […] Table S1 summarizes the pertinent enzymatic parameters extracted from the initial reaction rate data in Fig. 2c using non-linear regression fit to a MM reaction model. Figure 2d presents the catalytic efficiencies, calculated for each peptide by dividing the turnover rate by the MM-constant (Kcat/KM), considered a measure for both substrate binding affinity and conversion kinetics into product.
(§1) Nitrocefin, a β-lactam widely used as a surrogate substrate of Penicillin in β-lactamase activity assay, was used as a substrate. NC degradation was monitored for 2 h. Nitrocefin stock solution was dissolved in acetonitrile (20 mM) and then diluted with Hepes buffer (50 mM, pH 7.4) to nitrocefin concentration of 360 µM (further dilutions to lower concentrations were made with the 360 µM NC stock). All nitrocefin samples were kept on ice in cold conditions and any further dilution or mixing was performed in ice-cold conditions to avoid self-hydrolysis background reaction. 120 µL of the pre-cooled nitrocefin solutions were mixed inside precooled clear 96-well plate (Greiner F-bottom) with 60 µL of pre-incubated PSMα solution (510 µM PSMα, incubated in DIW and later buffered in Hepes 50 mM, pH 7.4). Immediately after mixing the samples, the plate was transferred to 20̊ °C pre-cooled plate reader (Multiskan GO, Thermo Scientific, Waltham, MA) and shaken slowly for 10 s. Then, the absorbance of degraded nitrocefin was measured for 2 h at interval of 20 s at λ = 480 nm. Initial production rates (V0) were calculated by slope of the initial linear range of degraded-nitrocefin production at the first 15 min. The reported results are and average of at least five separate measurements (the exact number of repeats, N, is reported next to the values). Each experiment also included blank samples of nitrocefin substrate diluted with buffer instead of PSMα. All presented results include subtraction of buffer control. The initial rate calculations were performed while also subtracting the self-degradation of the substrate, to ensure that this product absorbance is a result of PSMα presence.
The initial rates of degraded-nitrocefin production were calculated from the slopes of the first 15 min of measurement as reported above. […] The kinetic parameters were calculated by fitting the data to MM model using non-linear regression, and the confidence intervals for each parameter were calculated accordingly. […]
Values derive from the fitting of the initial rates to MM model and are presented as calculated-value ± confidence interval. […]

[2] = Nitrocefin hydrolysis kinetics (absorbance of degraded nitrocefin at 480 nm; initial rates V0, Michaelis-Menten fit); type: biochemical; parameters: Initial nitrocefin-degradation reaction rate, V0: unit not given here; conditions: for initial rate of nitrocefin degradation reaction (V0): peptide 170 µM, initial nitrocefin 107 µM, first 15 min (Fig. 3f); for Initial nitrocefin-degradation reaction rate, V0: Hepes pH 7.4, average of the six runs
Procedure: as §1, with “120 µL of the pre-cooled nitrocefin solutions were mixed inside precooled clear 96-well plate (Greiner F-bottom) with 60 µL of pre-incubated PSMα solution (510 µM PSMα, incubated in DIW and later buffered in Hepes 50 mM, pH 7.4).” left out, “All presented results include subtraction of buffer control.” left out
The initial rates of degraded-nitrocefin production were calculated from the slopes of the first 15 min of measurement as reported above. The initial rates (V0) were fitted using non-linear regression applied with the solver function in excel, either to Michalis–Menten equation V=Vmax.[S]/(KM+S) Where Vmax. Stands for maximal reaction rate, KM stands for Michalis–Menten constant, [S] stands for the substrate molar concentration. Each initial rate value was presented as average ± SEM. The kinetic parameters were calculated by fitting the data to MM model using non-linear regression, and the confidence intervals for each parameter were calculated accordingly.

[3] = not given; remark: listed apart in the source
[4] = test system: O=C(Cc1cccs1)N[C@@H]1C(=O)N2C(C(=O)O)=C(/C=C/c3ccc([N+](=O)[O-])cc3[N+](=O)[O-])CS[C@H]12; assay: Source-data fits for PSMα variants (170 µM): initial rates of nitrocefin hydrolysis (up to 240 µM) by absorbance at 480 nm in 50 mM Hepes pH 7.4 at 20 °C.; type: biochemical
Procedure: as §1
The initial rates of degraded-nitrocefin production were calculated from the slopes of the first 15 min of measurement as reported above. […] The kinetic parameters were calculated by fitting the data to MM model using non-linear regression, and the confidence intervals for each parameter were calculated accordingly.

[5] = type: biochemical; conditions: Fap 20 µM, nitrocefin 100 µM, A480, ten hours (Fig. S3)
Procedure: Figure S3. Cross-β bacterial amyloids of Pseudomonas Aeruginosa. Fap B and Fap C were incubated for seven days at 37 °C for fibrillation. Then, upon appearance of typical turbidity the samples were diluted and nitrocefin was added to the samples, creating solutions of 20 µM Fap and nitrocefin in concentration of 100 µM. The absorbance of the nitrocefin was recorded in microplate reader at 480 nm for ten hours, resulting low absorbance relatively to the PSMα at close mass concentration (w/v, 300 µM). This comparison was necessary due to the major differences in sequence length of the Fap proteins and the short PSMα3 peptide. The results are shown as absorbance rather than product concentration due to the slight turbidity of the Fap samples.
(1 picture or pasted object on this page, not shown here)

[6] = AVG of runs, fit of V0 vs NC concentration
[7] = Michaelis-Menten fit of nitrocefin titration, single run, block r246-r259
[8] = Michaelis-Menten fit of nitrocefin titration, single run, block r262-r275
[9] = Michaelis-Menten fit of nitrocefin titration, single run, block r278-r291
[10] = Michaelis-Menten fit of nitrocefin titration, single run, block starting r293

For “PSMα3 (Staphylococcus aureus subsp. aureus NCTC 8325)”, the Km [1] was 80 µM.

In the case of “PSMα2 (Staphylococcus aureus subsp. aureus MW2)”, the Km [1] is reported as 230 µM.

With `CSCC[C@H](N)C(=O)N[C@@H](CCC(=O)O)C(=O)N[C@@H](Cc1ccccc1)C(=O)N[C@H](C(=O)N[C@@H](C)C(=O)N[C@@H](CCCCN)C(=O)N[C@@H](CC(C)C)C(=O)N[C@@H](Cc1ccccc1)C(=O)N[C@@H](CCCCN)C(=O)N[C@H](Cc1ccccc1)C(=O)N[C@H](Cc1ccccc1)C(=O)N[C@@H](CCCCN)C(=O)N[C@@H](CC(=O)O)C(=O)N[C@@H](CC(C)C)C(=O)N[C@@H](CC(C)C)C(=O)NCC(=O)N[C@@H](CCCCN)C(=O)N[C@@H](Cc1ccccc1)C(=O)N[C@@H](CC(C)C)C(=O)NCC(=O)N[C@@H](CC(N)=O)C(=O)N[C@@H](CC(N)=O)C(=O)O)C(C)C` [α3-(d)FF] the “initial rate of nitrocefin degradation reaction (V0)” value ([2]; Hepes 50 mM pH 7.4, 20 °C) was 30 µM/h, the ATR-FTIR amide-I peak/maximum was 1640 cm⁻¹ and the ATR-FTIR amide-I shoulder [3] was 1630 cm⁻¹.

For `CC[C@H](C)[C@H](NC(=O)[C@H](C)NC(=O)[C@@H](N)CCSC)C(=O)N[C@H](C(=O)NCC(=O)N[C@H](C(=O)N[C@H](C(=O)N[C@H](C(=O)N[C@@H](CCCCN)C(=O)N[C@H](C(=O)N[C@H](C(=O)N[C@@H](CCCCN)C(=O)N[C@@H](C)C(=O)N[C@H](C(=O)N[C@H](C(=O)N[C@@H](CC(=O)O)C(=O)N[C@H](C(=O)N[C@@H](Cc1ccccc1)C(=O)N[C@@H](C)C(=O)N[C@@H](CCCCN)C(=O)O)[C@@H](C)CC)[C@@H](C)CC)[C@@H](C)CC)[C@@H](C)CC)[C@@H](C)CC)[C@@H](C)CC)[C@@H](C)CC)[C@@H](C)O)C(C)C` [PSMα4], the “Initial nitrocefin-degradation reaction rate, V0” value ([2]; PSMα 4.01424 uM, nitrocefin 60 µM) was 0.5451, the “Initial nitrocefin-degradation reaction rate, V0” value ([2]; PSMα 6.02136 uM, nitrocefin 60 µM) was 0.5496 and the “Initial nitrocefin-degradation reaction rate, V0” value ([2]; PSMα 9.03205 uM, nitrocefin 60 µM) was -0.2169. For the same molecule, the “Initial nitrocefin-degradation reaction rate, V0” value ([2]; PSMα 13.5481 uM, nitrocefin 60 µM) was 1.372, the “Initial nitrocefin-degradation reaction rate, V0” value ([2]; PSMα 20.3221 uM, nitrocefin 60 µM) was 0.8016 and the “Initial nitrocefin-degradation reaction rate, V0” value ([2]; PSMα 30.4832 uM, nitrocefin 60 µM) was 1.8. For the same molecule, the “Initial nitrocefin-degradation reaction rate, V0” value ([2]; PSMα 45.7247 uM, nitrocefin 60 µM) was 3.313, the “Initial nitrocefin-degradation reaction rate, V0” value ([2]; PSMα 68.5871 uM, nitrocefin 60 µM) was -1.824 and the “Initial nitrocefin-degradation reaction rate, V0” value ([2]; PSMα 102.881 uM, nitrocefin 60 µM) was 15.0899. For the same molecule, the “Initial nitrocefin-degradation reaction rate, V0” value ([2]; PSMα 154.321 uM, nitrocefin 60 µM) was 17.903, the “Initial nitrocefin-degradation reaction rate, V0” value ([2]; PSMα 231.481 uM, nitrocefin 60 µM) was 15.5904 and the “Initial nitrocefin-degradation reaction rate, V0” value ([2]; PSMα 347.222 uM, nitrocefin 60 µM) was 26.4203. The “nitrocefin degradation yield (turnover)” value ([2]; nitrocefin 60 µM, PSMα assemblies 350 µM, Hepes 50 mM pH 7.4, 20 °C, A480, monitored 2 h (Fig. 2a)) was ~ 15% and the ATR-FTIR amide-I peak/maximum was 1620 cm⁻¹.

For KNKMFGVALFNFGFKEDLLFLK [α3-scrambled], the “Kcat” value [2, 6] was 3362023 s⁻¹, the “Vmax” value [2, 6] was 31897124362167 µM/h and the “E [1/Ms] (catalytic efficiency)” value ([2]; AVG of runs, fit of V0 vs nitrocefin (NC) concentration) was 0.653 M⁻¹ s⁻¹. For the same molecule, the “Kcat” value [2, 7] was 406977 s⁻¹, the “Vmax” value [2, 7] was 249070136309 µM/h and the “Kcat” value [2, 8] was 0.0002595 s⁻¹. For the same molecule, the Km [2, 8] was 438 µM, the “Vmax” value [2, 8] was 158.82 µM/h and the “Kcat” value [2, 9] was 0.0002595 s⁻¹. The Km [2, 9] was 438 µM, the “Vmax” value [2, 9] was 158.82 µM/h and the “Kcat” value [2, 10] was 3.556e-05 s⁻¹. The Km [2, 10] was 37.6 µM, the “Vmax” value [2, 10] was 21.76 µM/h and the “initial rate of nitrocefin degradation reaction (V0)” value ([2]; Hepes 50 mM pH 7.4, 20 °C) was 21 µM/h. For the same molecule, the ATR-FTIR amide-I peak/maximum was 1630 cm⁻¹ and the ATR-FTIR amide-I shoulder [3] was 1680 cm⁻¹.

Work on “PSMα1 (Staphylococcus aureus subsp. aureus NCTC 8325)” yielded a Km [1] of 200 µM.

With “a3-cationic (Staphylococcus aureus subsp. aureus NCTC 8325; D13N/E2Q)” the Km [4] was 772.188 µM, the Vmax [4] was 8.13 µM/min and the kcat [4] was 0.00116 s⁻¹.

“PSMα4 (Staphylococcus aureus subsp. aureus MW2)” gave a Km [1] of 200 µM.

B1: FapB: cross-β Pseudomonas Aeruginosa-originated bacterial amyloid (protein, UniProt Q9I2E9 20-189, looked up)
Functional amyloid subunit …: DPLASRNRASIDDSGTYRGNFALNQAAGDAQQQSNVRVVAVGSAALVGSDQRQHLQLDASQPIAASASISGAALRGSGILGVNQGAGLGNQQINAFRLSLSNGPESLDDSVLAQSVALTKVSGSATPVPGGRSVSTDDRAFAGSSGVVQVNQSAGVGNQSMNTLSVRVME
With B1 the “nitrocefin degradation by cross-β bacterial amyloids” value [5] was “minor nitrocefin degradation”.

B2: FapC: cross-β Pseudomonas Aeruginosa-originated bacterial amyloid (protein, UniProt Q9I2F0 25-340, looked up)
Functional amyloid subunit …: GNEGGWHPPKPNPQSNNKGGATALVVDTQQNYNNKVSNFGTLNNASVSGSIKDASGNVGVNVAAGDNNQQANAAALASADASFVFGTATASTSVLQSGYGNTLNNYSNPNTASLSNSANNVSGNLGVNVAAGNFNQQKNDLAAAVSNGQYSTAGSAASQTSTGNTTVNSANYAYGGTYVSLKLNADGSYKGTSDQIGDVYLDTWEGQTHPGGSNTGHIDVDSQAQGAKDLNHDGGAFAFKEKGDVDLKGTVSGFIPAIVGFKTPVTNNASLSNSLQNVSGNVGVNIAAGGGNQQSNSLSIAAGCSSCPAGGESLGF
For B2, the “nitrocefin degradation by cross-β bacterial amyloids” value [5] was “minor nitrocefin degradation”.
